How the values were obtained:
[1] = molecular target: human Factor XIa (Homo sapiens (Human), UniProt P03951); test: Factor XIa Assay; type: biochemical; details: purified human Factor XIa 40 pM, Z-Gly-Pro-Arg-AFC 100 μM, pH 7.4; read-out: FXIa Ki
Procedure, shortened: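 Ki derived from the dependence of Vo/Vi on inhibitor concentration under a competitive-inhibition model, after pre-equilibration of enzyme and inhibitor. Reaction: 40 pM human FXIa, 100 μM Z-Gly-Pro-Arg-AFC, HEPES 50 mM pH 7.4 with NaCl, CaCl2 and PEG 8000; run at room temperature or 37° C.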

[2] = molecular target: Human plasma kallikrein (Homo sapiens (Human), UniProt P03952); test: Kallikrein Assay; type: biochemical; details: purified Human plasma kallikrein 0.5 nM, Acetyl-K-P-R-AFC, pH 7.4; Ki from IC50 by Cheng Prusoff
Sequence of Human plasma kallikrein (P03952 391-638): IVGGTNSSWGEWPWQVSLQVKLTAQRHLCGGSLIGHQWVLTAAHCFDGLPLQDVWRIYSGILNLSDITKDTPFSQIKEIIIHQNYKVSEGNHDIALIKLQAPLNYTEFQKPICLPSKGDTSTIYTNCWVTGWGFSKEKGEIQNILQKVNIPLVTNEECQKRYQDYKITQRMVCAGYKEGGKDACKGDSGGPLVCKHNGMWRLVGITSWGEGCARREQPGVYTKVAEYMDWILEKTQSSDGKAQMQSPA
Sequence of Human plasma kallikrein (P03952 20-390 partner): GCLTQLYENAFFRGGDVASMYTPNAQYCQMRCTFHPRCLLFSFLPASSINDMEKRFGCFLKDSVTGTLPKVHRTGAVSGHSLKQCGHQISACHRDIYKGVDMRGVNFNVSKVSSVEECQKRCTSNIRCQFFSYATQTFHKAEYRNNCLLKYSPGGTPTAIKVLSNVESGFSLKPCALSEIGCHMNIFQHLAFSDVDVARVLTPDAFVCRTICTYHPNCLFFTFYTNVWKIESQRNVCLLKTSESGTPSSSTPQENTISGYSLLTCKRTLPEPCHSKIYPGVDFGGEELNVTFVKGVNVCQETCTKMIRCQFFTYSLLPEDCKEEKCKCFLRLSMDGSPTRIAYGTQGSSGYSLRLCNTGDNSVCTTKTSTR
Protocol: The effectiveness of a compound of the present invention as an inhibitor of Kallikrein can be determined using a relevant purified serine protease, and an appropriate synthetic substrate. The rate of hydrolysis of the chromogenic or fluorogenic substrate by the relevant serine protease was measured both in the absence and presence of compounds of the present invention. Assays were conducted at room temperature or at 37° C. […] A decrease in the rate of fluorescence change in the presence of inhibitor is indicative of enzyme inhibition. Such methods are known to one skilled in the art. The results of this assay are expressed as the inhibitory constant, Ki.
Kallikrein determinations were made in 50 mM HEPES buffer at pH 7.4 containing 150 mM NaCl, 5 mM CaCl2, and 0.1% PEG 8000 (polyethylene glycol; Fisher Scientific). Determinations were made using purified Human plasma kallikrein at a final concentration of 0.5 nM (Enzyme Research Laboratories) and the synthetic substrate, Acetyl-K-P-R-AFC (Sigma #C6608) at a concentration of […].
Times required to achieve equilibration between enzyme and inhibitor were determined in control experiments. The reactions were performed under linear progress curve conditions and fluorescence increase measured at 405 Ex/510 Em nm. […] IC50 was determined by inflection point from a four parameter logistic curve fit. Ki was calculated using the Cheng Prusoff equation, Ki=IC50/(1+([S]/Km)).

Sequence of human Factor XIa (P03951 388-625): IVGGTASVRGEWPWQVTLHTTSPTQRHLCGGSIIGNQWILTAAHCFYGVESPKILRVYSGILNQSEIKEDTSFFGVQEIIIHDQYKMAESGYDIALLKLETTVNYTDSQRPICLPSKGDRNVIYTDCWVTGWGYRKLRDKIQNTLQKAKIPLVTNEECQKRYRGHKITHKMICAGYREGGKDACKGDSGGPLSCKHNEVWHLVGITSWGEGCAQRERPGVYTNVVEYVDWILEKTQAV
Sequence of human Factor XIa (P03951 19-387 partner): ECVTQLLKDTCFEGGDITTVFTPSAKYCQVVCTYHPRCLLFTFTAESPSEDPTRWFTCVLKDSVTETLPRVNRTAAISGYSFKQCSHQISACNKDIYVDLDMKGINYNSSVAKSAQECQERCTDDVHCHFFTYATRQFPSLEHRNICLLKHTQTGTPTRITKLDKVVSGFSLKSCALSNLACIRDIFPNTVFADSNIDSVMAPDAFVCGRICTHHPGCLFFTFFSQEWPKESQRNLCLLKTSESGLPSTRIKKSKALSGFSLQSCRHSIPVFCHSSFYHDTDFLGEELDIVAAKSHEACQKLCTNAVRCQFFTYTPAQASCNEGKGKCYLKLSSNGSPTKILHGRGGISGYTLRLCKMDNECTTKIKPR

Row | Structure (SMILES) | Ki [1] | Ki [2]
1 | COC(=O)Nc1ccc(C(=O)N[C@@H](Cc2ccccc2)C(=O)N2CCC[C@@]3(C2)OC(=O)Nc2ccc(F)cc23)cc1 [Example 8a, methyl (4-(((S)-1-((R)-6-fluoro-2-oxo-1,2-dihydrospiro[benzo[d][1,3]oxazine-4,3′-piperidin]-1′-yl)-1-oxo-3-phenylpropan-2-yl)carbamoyl)phenyl)carbamate] | 12.8 nM | 9.78 nM
2 | COC(=O)Nc1ccc(C(=O)N[C@@H](Cc2ccc(F)c(F)c2)C(=O)N2CCC3(C2)OC(=O)Nc2ccc(Cl)cc23)cc1 (stereo partly drawn) [Example 27, methyl (4-(((2S)-1-(6-chloro-2-oxo-1,2-dihydrospiro[benzo[d][1,3]oxazine-4,3′-pyrrolidin]-1′-yl)-3-(3,4-difluorophenyl)-1-oxopropan-2-yl)carbamoyl)phenyl)carbamate] | 14.3 nM | 32.6 nM
3 | COC(=O)Nc1ccc(C(=O)N[C@@H](Cc2cncn2C)C(=O)N2CCC3(C2)OC(=O)Nc2ccc(Cl)cc23)cc1 (stereo partly drawn) [Example 30, methyl (4-(((2S)-1-(6-chloro-2-oxo-1,2-dihydrospiro[benzo[d][1,3]oxazine-4,3′-pyrrolidin]-1′-yl)-3-(1-methyl-1H-imidazol-5-yl)-1-oxopropan-2-yl)carbamoyl)phenyl)carbamate] | 17.6 nM | 37 nM
4 | COC(=O)Nc1ccc(C(=O)N[C@@H](Cn2cccn2)C(=O)N2CCC3(C2)OC(=O)Nc2ccc(Cl)cc23)cc1 (stereo partly drawn) [Example 31, methyl (4-(((2S)-1-(6-chloro-2-oxo-1,2-dihydrospiro[benzo[d][1,3]oxazine-4,3′-pyrrolidin]-1′-yl)-1-oxo-3-(1H-pyrazol-1-yl)propan-2-yl)carbamoyl)phenyl)carbamate] | 26 nM | 77.3 nM
5 | COC(=O)Nc1ccc(C(=O)N[C@@H](Cc2ccsc2)C(=O)N2CCC3(C2)OC(=O)Nc2ccc(Cl)cc23)cc1 (stereo partly drawn) [Example 32, methyl (4-(((2S)-1-(6-chloro-2-oxo-1,2-dihydrospiro[benzo[d][1,3]oxazine-4,3′-pyrrolidin]-1′-yl)-1-oxo-3-(thiophen-3-yl)propan-2-yl)carbamoyl)phenyl)carbamate] | 16 nM | 42.2 nM
6 | COC(=O)Nc1ccc(C(=O)N[C@@H](CO)C(=O)N2CCC[C@@]3(C2)OC(=O)Nc2ccc(Cl)cc23)cc1 [Example 38, methyl (4-(((S)-1-((R)-6-chloro-2-oxo-1,2-dihydrospiro[benzo[d][1,3]oxazine-4,3′-piperidin]-1′-yl)-3-hydroxy-1-oxopropan-2-yl)carbamoyl)phenyl)carbamate] | 49.9 nM | 9.45 nM
7 | COC(=O)Nc1ccc(C(=O)N[C@@H](Cc2ccc(C(=O)c3ccccc3)cc2)C(=O)N2CCC3(C2)OC(=O)Nc2ccc(Cl)cc23)cc1 (stereo partly drawn) [Example 39, methyl (4-(((2S)-3-(4-benzoylphenyl)-1-(6-chloro-2-oxo-1,2-dihydrospiro[benzo[d][1,3]oxazine-4,3′-pyrrolidin]-1′-yl)-1-oxopropan-2-yl)carbamoyl)phenyl)carbamate] | 39.3 nM | 86.6 nM
8 | COC(=O)Nc1ccc(C(=O)N[C@@H](Cc2cscn2)C(=O)N2CCC3(C2)OC(=O)Nc2ccc(Cl)cc23)cc1 (stereo partly drawn) [Example 40, methyl (4-(((2S)-1-(6-chloro-2-oxo-1,2-dihydrospiro[benzo[d][1,3]oxazine-4,3′-pyrrolidin]-1′-yl)-1-oxo-3-(thiazol-4-yl)propan-2-yl)carbamoyl)phenyl)carbamate] | 52.4 nM | 116 nM
9 | COC(=O)Nc1ccc(C(=O)N[C@@H](Cc2sccc2F)C(=O)N2CCC3(C2)OC(=O)Nc2ccc(Cl)cc23)cc1 (stereo partly drawn) [Example 43, methyl (4-(((2S)-1-(6-chloro-2-oxo-1,2-dihydrospiro[benzo[d][1,3]oxazine-4,3′-pyrrolidin]-1′-yl)-3-(3-fluorothiophen-2-yl)-1-oxopropan-2-yl)carbamoyl)phenyl)carbamate] | 17.7 nM | 42.5 nM

Stronger by Ki [1], values ahead:

Row | Ki [1] | Ki [2] | Structure (SMILES)
10 | 9.5 nM | 47.8 nM | COC(=O)Nc1ccc(C(=O)N[C@@H](Cc2ccccc2)C(=O)N2CC[C@@]3(C2)OC(=O)Nc2ccc(C)cc23)cc1 [Example 14b, methyl (4-(((S)-1-((R)-6-methyl-2-oxo-1,2-dihydrospiro[benzo[d][1,3]oxazine-4,3′-pyrrolidin]-1′-yl)-1-oxo-3-phenylpropan-2-yl)carbamoyl)phenyl)carbamate]
11 | 9.21 nM | 2.68 nM | COCC[C@H](NC(=O)c1ccc(NC(=O)OC)cc1)C(=O)N1CCC[C@@]2(C1)OC(=O)Nc1ccc(Cl)cc12 [Example 37, methyl (4-(((S)-1-((R)-6-chloro-2-oxo-1,2-dihydrospiro[benzo[d][1,3]oxazine-4,3′-piperidin]-1′-yl)-4-methoxy-1-oxobutan-2-yl)carbamoyl)phenyl)carbamate]
12 | 5.5 nM | 2.8 nM | COC(=O)Nc1ccc(C(=O)N[C@@H](Cc2ccccc2)C(=O)N2CCC[C@@]3(C2)OC(=O)Nc2ccc(C)cc23)cc1 [Example 15, methyl (4-(((S)-1-((R)-6-methyl-2-oxo-1,2-dihydrospiro[benzo[d][1,3]oxazine-4,3′-piperidin]-1′-yl)-1-oxo-3-phenylpropan-2-yl)carbamoyl)phenyl)carbamate]
13 | 5.3 nM | 21.9 nM | COC(=O)Nc1ccc(C(=O)N[C@@H](Cc2ccc(F)cc2)C(=O)N2CC[C@@]3(C2)OC(=O)Nc2ccc(Cl)cc23)cc1 [Example 22, methyl (4-(((S)-1-((R)-6-chloro-2-oxo-1,2-dihydrospiro[benzo[d][1,3]oxazine-4,3′-pyrrolidin]-1′-yl)-3-(4-fluorophenyl)-1-oxopropan-2-yl)carbamoyl)phenyl)carbamate]
14 | 3.85 nM | 1.36 nM | COC(=O)Nc1ccc(C(=O)N[C@@H](Cc2ccccc2)C(=O)N2CCC[C@@]3(C2)OC(=O)Nc2ccc(C)c(F)c23)cc1 [Example 16, methyl (4-(((S)-1-((R)-5-fluoro-6-methyl-2-oxo-1,2-dihydrospiro[benzo[d][1,3]oxazine-4,3′-piperidin]-1′-yl)-1-oxo-3-phenylpropan-2-yl)carbamoyl)phenyl)carbamate]
15 | 3.28 nM | 24.6 nM | COC(=O)Nc1ccc(C(=O)N[C@@H](Cc2ccc(O)cc2)C(=O)N2CCC3(C2)OC(=O)Nc2ccc(Cl)cc23)cc1 (stereo partly drawn) [Example 35, methyl (4-(((2S)-1-(6-chloro-2-oxo-1,2-dihydrospiro[benzo[d][1,3]oxazine-4,3′-pyrrolidin]-1′-yl)-3-(4-hydroxyphenyl)-1-oxopropan-2-yl)carbamoyl)phenyl)carbamate]
16 | 2 nM | 2.6 nM | COC(=O)Nc1ccc(C(=O)N[C@@H](Cc2ccccc2)C(=O)N2CCC[C@@]3(C2)OC(=O)Nc2ccc(OC)cc23)cc1 [Example 9, methyl (4-(((S)-1-((R)-6-methoxy-2-oxo-1,2-dihydrospiro[benzo[d][1,3]oxazine-4,3′-piperidin]-1′-yl)-1-oxo-3-phenylpropan-2-yl)carbamoyl)phenyl)carbamate]
17 | 1.8 nM | 1.4 nM | COC(=O)Nc1ccc(C(=O)N[C@@H](Cc2ccccc2)C(=O)N2CCCC3(C2)OC(=O)Nc2ccc(Cl)c(F)c23)cc1 (stereo partly drawn) [Example 13, methyl (4-(((2S)-1-(6-chloro-5-fluoro-2-oxo-1,2-dihydrospiro[benzo[d][1,3]oxazine-4,3′-piperidin]-1′-yl)-1-oxo-3-phenylpropan-2-yl)carbamoyl)phenyl)carbamate]

Reference: US10093683B2, “Factor XIa inhibitors” (Merck Sharp & Dohme Corp., priority 2014, dated 2018)
